# From ChEMBL document CHEMBL3885881, “DrugMatrix”
# Species: Rattus norvegicus
# Assay: DrugMatrix - Regimen: Daily Repeat
# Assay type: toxicity, organism-based, Sprague-Dawley
# Set-up: regimen Daily Repeat, gender Male, age 6-8 weeks
# Details: in vivo, po, route oral GAVAGE, […]; for URIC ACID / ALANINE AMINOTRANSFERASE / ALBUMIN / ALKALINE PHOSPHATASE / ASPARTATE AMINOTRANSFERASE / BLOOD UREA NITROGEN / CARBON DIOXIDE / CHLORIDE / CREATINE PHOSPHOKINASE / CREATININE / GLUCOSE / LACTATE DEHYDROGENASE / LIPASE / PHOSPHORUS / POTASSIUM / SODIUM / TOTAL BILIRUBIN / TOTAL PROTEIN / CHOLESTEROL: tissue Plasma; for ABSOLUTE BASOPHIL / ABSOLUTE EOSINOPHIL / ABSOLUTE LYMPHOCYTE / ABSOLUTE MONOCYTE / ABSOLUTE SEGMENTED NEUTROPHIL / BASOPHIL / EOSINOPHIL / ERYTHROCYTE COUNT / HEMATOCRIT / HEMOGLOBIN / LEUKOCYTE COUNT / LYMPHOCYTE / MEAN CORPUSCULAR HEMOGLOBIN / MEAN CORPUSCULAR HEMOGLOBIN CONCENTRATION / MONOCYTE / NEUTROPHIL / NUCLEATED RED BLOOD CELLS / PLATELET COUNT: tissue Blood
# [1] = 250 mg/kg, 120 h, dose level Low, time 5 day
# [2] = 2500 mg/kg, 72 h, dose level High, time 3 day
# [3] = 2500 mg/kg, 120 h, dose level High, time 5 day
structure (smiles),measurement,setting,value
Cc1noc(NS(=O)(=O)c2ccc(N)cc2)c1C [SULFISOXAZOLE],URIC ACID,"250 mg/kg, 72 h, dose level Low, time 3 day",1.8 mg/dL
same,ABSOLUTE BASOPHIL,[1],0 CELLS/uL
same,ABSOLUTE EOSINOPHIL,[1],0 CELLS/uL
same,ABSOLUTE LYMPHOCYTE,[1],9180.67 CELLS/uL
same,ABSOLUTE MONOCYTE,[1],0 CELLS/uL
same,ABSOLUTE SEGMENTED NEUTROPHIL,[1],986 CELLS/uL
same,BASOPHIL,[1],0%
same,EOSINOPHIL,[1],0%
same,ERYTHROCYTE COUNT,[1],5.62 x10E6/uL
same,HEMATOCRIT,[1],34.93%
same,HEMOGLOBIN,[1],13.27 G/DL
same,LEUKOCYTE COUNT,[1],10.17 x10E3/uL
same,LYMPHOCYTE,[1],90.67%
same,MEAN CORPUSCULAR HEMOGLOBIN,[1],23.63 pg
same,MEAN CORPUSCULAR HEMOGLOBIN CONCENTRATION,[1],38 G/DL
same,MONOCYTE,[1],0%
same,NEUTROPHIL,[1],9.33%
same,NUCLEATED RED BLOOD CELLS,[1],0 /100WBC
same,PLATELET COUNT,[1],1021 x10E3/uL
same,ALANINE AMINOTRANSFERASE,[1],64.33 u/L
same,ALBUMIN,[1],4 G/DL
same,ALKALINE PHOSPHATASE,[1],394 u/L
same,ASPARTATE AMINOTRANSFERASE,[1],103.67 u/L
same,BLOOD UREA NITROGEN,[1],15 mg/dL
same,CARBON DIOXIDE,[1],30.67 mmol/L
same,CHLORIDE,[1],101.67 MEQ/L
same,CREATINE PHOSPHOKINASE,[1],404 u/L
same,CREATININE,[1],0.18 mg/dL
same,GLUCOSE,[1],149.33 mg/dL
same,LACTATE DEHYDROGENASE,[1],127.33 u/L
same,LIPASE,[1],11 u/L
same,PHOSPHORUS,[1],10.7 mg/dL
same,POTASSIUM,[1],5.9 MEQ/L
same,SODIUM,[1],143.87 MEQ/L
same,TOTAL BILIRUBIN,[1],0.17 mg/dL
same,TOTAL PROTEIN,[1],5.9 G/DL
same,URIC ACID,[1],1 mg/dL
same,ABSOLUTE BASOPHIL,[2],0 CELLS/uL
same,ABSOLUTE EOSINOPHIL,[2],133 CELLS/uL
same,ABSOLUTE LYMPHOCYTE,[2],8008.67 CELLS/uL
same,ABSOLUTE MONOCYTE,[2],152 CELLS/uL
same,ABSOLUTE SEGMENTED NEUTROPHIL,[2],3173 CELLS/uL
same,BASOPHIL,[2],0%
same,EOSINOPHIL,[2],1%
same,ERYTHROCYTE COUNT,[2],4.62 x10E6/uL
same,HEMATOCRIT,[2],28.6%
same,HEMOGLOBIN,[2],11.27 G/DL
same,LEUKOCYTE COUNT,[2],11.47 x10E3/uL
same,LYMPHOCYTE,[2],67%
same,MEAN CORPUSCULAR HEMOGLOBIN,[2],24.33 pg
same,MEAN CORPUSCULAR HEMOGLOBIN CONCENTRATION,[2],39.47 G/DL
same,MONOCYTE,[2],1%
same,NEUTROPHIL,[2],31%
same,NUCLEATED RED BLOOD CELLS,[2],0 /100WBC
same,PLATELET COUNT,[2],1118.33 x10E3/uL
same,ALANINE AMINOTRANSFERASE,[2],65.33 u/L
same,ALBUMIN,[2],4 G/DL
same,ALKALINE PHOSPHATASE,[2],312 u/L
same,ASPARTATE AMINOTRANSFERASE,[2],109.67 u/L
same,BLOOD UREA NITROGEN,[2],13.67 mg/dL
same,CARBON DIOXIDE,[2],24.67 mmol/L
same,CHLORIDE,[2],98.33 MEQ/L
same,CHOLESTEROL,[2],78.33 mg/dL
same,CREATINE PHOSPHOKINASE,[2],1633.33 u/L
same,CREATININE,[2],0.24 mg/dL
same,GLUCOSE,[2],172.33 mg/dL
same,LACTATE DEHYDROGENASE,[2],198.67 u/L
same,LIPASE,[2],10.67 u/L
same,PHOSPHORUS,[2],11.6 mg/dL
same,POTASSIUM,[2],4.69 MEQ/L
same,SODIUM,[2],140.23 MEQ/L
same,TOTAL BILIRUBIN,[2],0.0667 mg/dL
same,TOTAL PROTEIN,[2],6.13 G/DL
same,URIC ACID,[2],1.5 mg/dL
same,ABSOLUTE BASOPHIL,[3],0 CELLS/uL
same,ABSOLUTE EOSINOPHIL,[3],0 CELLS/uL
same,ABSOLUTE LYMPHOCYTE,[3],10533.67 CELLS/uL
same,ABSOLUTE MONOCYTE,[3],131 CELLS/uL
same,ABSOLUTE SEGMENTED NEUTROPHIL,[3],502 CELLS/uL
same,BASOPHIL,[3],0%
same,EOSINOPHIL,[3],0%
same,ERYTHROCYTE COUNT,[3],5.59 x10E6/uL
same,HEMATOCRIT,[3],35.7%
same,HEMOGLOBIN,[3],13.8 G/DL
same,LEUKOCYTE COUNT,[3],11.17 x10E3/uL
same,LYMPHOCYTE,[3],94.33%
same,MEAN CORPUSCULAR HEMOGLOBIN,[3],24.7 pg
same,MEAN CORPUSCULAR HEMOGLOBIN CONCENTRATION,[3],38.63 G/DL
same,MONOCYTE,[3],1%
same,NEUTROPHIL,[3],4.67%
same,NUCLEATED RED BLOOD CELLS,[3],0 /100WBC
same,PLATELET COUNT,[3],1151.33 x10E3/uL
same,ALANINE AMINOTRANSFERASE,[3],87.67 u/L
same,ALBUMIN,[3],4.17 G/DL
same,ALKALINE PHOSPHATASE,[3],442.67 u/L
same,ASPARTATE AMINOTRANSFERASE,[3],84.33 u/L
same,BLOOD UREA NITROGEN,[3],19.33 mg/dL
same,CARBON DIOXIDE,[3],31 mmol/L
same,CHLORIDE,[3],101.67 MEQ/L
same,CHOLESTEROL,[3],73.33 mg/dL
same,CREATINE PHOSPHOKINASE,[3],296.67 u/L
same,CREATININE,[3],0.23 mg/dL
same,GLUCOSE,[3],139 mg/dL
same,LACTATE DEHYDROGENASE,[3],98 u/L
same,LIPASE,[3],11 u/L
same,PHOSPHORUS,[3],9.13 mg/dL
same,POTASSIUM,[3],5.93 MEQ/L
same,SODIUM,[3],145.57 MEQ/L
same,TOTAL BILIRUBIN,[3],0.1 mg/dL
same,TOTAL PROTEIN,[3],6.3 G/DL
same,URIC ACID,[3],0.97 mg/dL
